# Source: patent publication US9957472B2, “Deterministic high-density single-cell trap array” (Georgia Tech Research Corporation, priority 2011, dated 2018)
# Columns and labels:
# [1] = test system: human embryonic kidney 293 cells; details: clonal HEK 293 cells challenged with caffeine; cited from earlier work
# [2] = test system: Jurkat cells; test: Calcium response of trapped Fluo-3-loaded Jurkat cells to ionomycin on chip (cell trap arrays with concentration gradient generator); type: cell-based, human
# Method: Jurkat E6-1 human acute T cell lymphoma cells (ATCC) were cultured in RPMI 1640 medium with L-glutamine (Sigma-Aldrich, St. Louis, Mo.) with 10 mM HEPES, 1 mM sodium pyruvate, 1×MEM nonessential amino acids, and 100 units mL^−1 penicillin streptomycin (Cellgro), supplemented with 10% certified heat inactivated fetal bovine serum (Sigma-Aldrich, St. Louis, Mo.), at 37° C. in a humidified 5% CO2 incubator. For nuclei visualisation, Jurkat cells were incubated with Hoechst 33258, at a final concentration of 1 μg mL^−1, at 37° C. for 20 minutes.
# Cells were checked for viability using Live/Dead stain (Invitrogen) following the manufacturer's protocol. For high resolution microscopy, 10^6 cells were fixed in a 5% formalin solution (Sigma-Aldrich, St. Louis, Mo.) for 15 minutes at 37° C., washed three times with cold PBS, and resuspended in 100 μL of ice cold 90% methanol. Immunostaining was performed on fixed cells using […] for DNA staining, mouse α-calnexin (Abcam) for ER staining, and rabbit α-profilin-1 (Cell Signaling), as a cytoplasmic localized protein. Incubation with the primary antibody for one hour at room temperature was followed by three wash steps with a solution of 2% BSA in PBS and incubation for 40 minutes at room temperature with the following secondary antibodies: Alexa 488 α-mouse (Invitrogen) and goat α-rabbit TRITC (Southern Biotech). To monitor calcium signaling, Jurkat cells were incubated with 5 μM Fluo-3 (Invitrogen) for 20 minutes at 37° C., washed with cold PBS, and loaded into the cell traps. Trapped cells were stimulated with ionomycin (Sigma, St. Louis, Mo.) at various concentrations to release intracellular calcium.
# Before each experiment, the microfluidic devices were primed using a solution of 2% BSA in PBS to remove any air bubbles and limit undesirable cell adhesion to the wall. A pressure difference of 3.5 kPa (5.5 kPa for devices with upstream serial-dilution gradient generator) created by gravity was used to drive the flow, resulting to an average flow rate of ˜2 μL h^−1. Cell loading was obtained by pipetting 2 μL of 5×10^6 cell mL^−1 of cell suspension on the chip positioned on the microscope stage. Further experiments (staining, stimulation) were performed by adding 5 μL of 4× chemicals in the inlet hole and flowing over the trapped cells for the desired time. All experiments were performed in a microcontrolled environment (temperature set at 37° C. in a humidified 5% CO2 environment).
# A […] (SIMCA-P, Umetrics) was run on a known dataset of objects to determine the two most informative predictors of the number of cells contained in an object. The perimeter and the extent (ratio of pixels in the object to pixels in the total bounding box) were found as being the most informative. To quantify single cell trapping efficiency, the distribution of objects in the perimeter-extent space was fitted to a 2-component Gaussian mixture model for each chamber trap array. The maximum likelihood parameters from each of the two subpopulations were retrieved and represented respectively the percentage of single cell objects and multiple cell objects. Single cell response intensities were obtained by tracking the mean intensity of each object considered as a single cell in the overlaid mask and image over time.
# The present trap arrays can also be easily integrated with upstream microfluidic components capable of multiplexing experiments, where cells can be exposed to different extracellular conditions on a single chip. […] After loading cells containing Fluo-3, more than 1,000 individual cells were monitored for an hour after the addition of different concentrations of the calcium ionophore ionomycin. Ionomycin increases intracellular calcium via mobilization of both extracellular and intracellular calcium stores in T cells. As expected, increased concentration of stimulus lead to increased average intracellular calcium concentration (FIG. 17). […]
SMILES,cells responding with an elevation in intracellular calcium [1],"% Responding Cells ([2]; ionomycin 0.08 μM, chamber 8, 250 tracked cells)","% Responding Cells ([2]; ionomycin 0.2 μM, chamber 7, 306 tracked cells)","% Responding Cells ([2]; ionomycin 0.5 μM, chamber 6, 273 tracked cells)","% Responding Cells ([2]; ionomycin 0.8 μM, chamber 5, 287 tracked cells)","% Responding Cells ([2]; ionomycin 1.4 μM, chamber 4, 322 tracked cells)","% Responding Cells ([2]; ionomycin 1.8 μM, chamber 3, 263 tracked cells)","% Responding Cells ([2]; ionomycin 2.2 μM, chamber 2, 328 tracked cells)","% Responding Cells ([2]; ionomycin 2.5 μM, chamber 1, 342 tracked cells)"
Cn1c(=O)c2c(ncn2C)n(C)c1=O [caffeine],40%,–,–,–,–,–,–,–,–
C[C@H](CCC(=O)O)C[C@H](C)C[C@H](C)C(=O)/C=C(\O)[C@H](C)C[C@H](C)C/C=C/[C@@H](C)[C@@H](O)[C@@H](C)[C@@H](O)C[C@@H]1CC[C@@](C)([C@H]2CC[C@@](C)([C@@H](C)O)O2)O1 [ionomycin],–,4%,17%,19.1%,25.4%,31.1%,31.9%,33.2%,44%
